Results from ChEMBL document CHEMBL5126520, “Recent research results have converted gp120 binders to a therapeutic option for the treatment of HIV-1 infection. A medicinal chemistry point of view” (Eur J Med Chem, 2022).
Starred links: 1 amine or outer side, 2 acyl side, 3 side chain; linkers in the order of their positions; H or OH if unused. Positions of bridges follow the written chain, without caps; N, C: chain ends. Non-standard residues stand in square brackets, D forms with d. Residues, ends and D or L forms follow the SMILES beside them. X1 = O=C([C@@H]1CC(n2cc(-c3ccc(-c4cccs4)cc3)nn2)CN1[*:1])[*:2]

Key:
[1] = test system: Human immunodeficiency virus 1; assay: Antiviral activity against HIV-1 Bal(R5) infected in human CEMx174 5.25M7 cells assessed as reduction in p24 antigen level preincubated for 30 mins followed by infection with cells and measured after 3 to 4 days by ELISA; format: functional, organism-based; conditions: Human immunodeficiency virus 1, Bal(R5)
[2] = test system: Human immunodeficiency virus 1; assay: Antiviral activity against HIV-1 IIIB(X4) infected in human MT2 cells assessed as reduction in p24 antigen level preincubated for 30 mins followed by infection with cells and measured after 3 to 4 days by ELISA; format: functional, organism-based; conditions: Human immunodeficiency virus 1, IIIB(X4)
[3] = Selectivity index, ratio of CC50 for cytotoxicity against human MT2 cells to EC50 for antiviral activity against HIV-1 IIIB infected in human MT2 cells; format: toxicity, cell-based; conditions: read-out: Ratio CC50/EC50
[4] = test system: Human immunodeficiency virus 1; assay: Antiviral activity against HIV-1 pseudotyped virus expressing HXB-2 Env proteins infected in human TZM-bl cells assessed as inhibition of viral entry preincubated for 30 mins followed by infection with cells and measured after 3 days by luciferase based analysis; format: functional, organism-based; conditions: Human immunodeficiency virus 1, TZM-bl
[5] = test system: Human immunodeficiency virus 1; assay: Antiviral activity against HIV-1 IIIB infected in human MT2 cells assessed as reduction in p24 antigen level incubated for 1 hr by ELISA; format: functional, organism-based; conditions: Human immunodeficiency virus 1, IIIB, MT2, 1 h
[6] = Cytotoxicity against human MT2 cells assessed as reduction in cell viability incubated for 4 days by XTT assay; format: toxicity, cell-based; conditions: time 4 day
[7] = Selectivity index, ratio of CC50 for Cytotoxicity against human TZM-bl cells to EC50 for antiviral activity against HIV-1 pseudotyped virus expressing HXB-2 Env proteins infected in human TZM-bl cells; format: toxicity, cell-based; conditions: read-out: Ratio CC50/EC50
[8] = test system: Human immunodeficiency virus 1; assay: Antiviral activity against laboratory-adapted HIV-1 NL4-3 infected in human TZM-bl cells incubated for 2 days by luciferase based analysis; format: functional, organism-based; conditions: Human immunodeficiency virus 1, NL4-3, TZM-bl, 48 h
[9] = test system: Human immunodeficiency virus 1; assay: Antiviral activity against HIV-1 CH58TF infected in human TZM-bl cells assessed as neutralization viral infection pretreated for 1 hr followed by infection with cells and measured after 48 hrs by luciferase assay; format: functional, organism-based; conditions: Human immunodeficiency virus 1, CH58TF
[10] = test system: Human immunodeficiency virus 1; assay: Antiviral activity against HIV-1 JR-FL; format: functional, organism-based; conditions: Human immunodeficiency virus 1, JR-FL
[11] = test system: Human immunodeficiency virus 1; assay: Antiviral activity against HIV-1 YU-2 assessed as inhibition of viral entry; format: functional, organism-based; conditions: Human immunodeficiency virus 1, YU-2
[12] = test system: Human immunodeficiency virus 1; assay: Antiviral activity against HIV-1 IIIB infected in human MT2 cells assessed as inhibition of p24 production preincubated for 30 mins followed by infection with cells and measured after 4 days by ELISA; format: functional, organism-based; conditions: Human immunodeficiency virus 1, IIIB
[13] = Cytotoxicity against human TZM-bl cells assessed as reduction in cell viability incubated for 3 days by MTS assay; format: toxicity, cell-based; conditions: time 3 day
[14] = Cytotoxicity against human MT2 cells assessed as reduction in cell viability incubated for 4 days by MTS assay; format: toxicity, cell-based; conditions: time 4 day
[15] = test system: Human immunodeficiency virus 1; assay: Antiviral activity against HIV-1 IIIB(X4) infected in human CEMx174 5.25M7 cells assessed as inactivation of HIV-1 free virions by measuring p24 antigen level preincubated for 1 hr followed by infection with cells and measured after 3 to 4 days by ELISA; format: functional, organism-based; conditions: Human immunodeficiency virus 1, IIIB(X4)
[16] = test system: Human immunodeficiency virus 1; assay: Antiviral activity against HIV-1 Bal(R5) infected in human CEMx174 5.25M7 cells assessed as inactivation of HIV-1 free virions by measuring p24 antigen level preincubated for 1 hr followed by infection with cells and measured after 3 to 4 days by ELISA; format: functional, organism-based; conditions: Human immunodeficiency virus 1, Bal(R5)
[17] = Cytotoxicity against human CEMx174 5.25M7 cells assessed as reduction in cell viability incubated for 48 hrs by CCK-8 assay; format: toxicity, cell-based
[18] = Cytotoxicity against human MT2 cells assessed as reduction in cell viability incubated for 48 hrs by CCK-8 assay; format: toxicity, cell-based
[19] = biological target: Envelope glycoprotein gp160 (Human immunodeficiency virus 1, UniProt Q6QLK5); assay: Inhibition of HIV1 gp120 interaction with CD4 pretreated for 1 hr followed by TMB substrate addition and measured after 10 mins by ELISA
Chain of Envelope glycoprotein gp160 (Q6QLK5 whole entry): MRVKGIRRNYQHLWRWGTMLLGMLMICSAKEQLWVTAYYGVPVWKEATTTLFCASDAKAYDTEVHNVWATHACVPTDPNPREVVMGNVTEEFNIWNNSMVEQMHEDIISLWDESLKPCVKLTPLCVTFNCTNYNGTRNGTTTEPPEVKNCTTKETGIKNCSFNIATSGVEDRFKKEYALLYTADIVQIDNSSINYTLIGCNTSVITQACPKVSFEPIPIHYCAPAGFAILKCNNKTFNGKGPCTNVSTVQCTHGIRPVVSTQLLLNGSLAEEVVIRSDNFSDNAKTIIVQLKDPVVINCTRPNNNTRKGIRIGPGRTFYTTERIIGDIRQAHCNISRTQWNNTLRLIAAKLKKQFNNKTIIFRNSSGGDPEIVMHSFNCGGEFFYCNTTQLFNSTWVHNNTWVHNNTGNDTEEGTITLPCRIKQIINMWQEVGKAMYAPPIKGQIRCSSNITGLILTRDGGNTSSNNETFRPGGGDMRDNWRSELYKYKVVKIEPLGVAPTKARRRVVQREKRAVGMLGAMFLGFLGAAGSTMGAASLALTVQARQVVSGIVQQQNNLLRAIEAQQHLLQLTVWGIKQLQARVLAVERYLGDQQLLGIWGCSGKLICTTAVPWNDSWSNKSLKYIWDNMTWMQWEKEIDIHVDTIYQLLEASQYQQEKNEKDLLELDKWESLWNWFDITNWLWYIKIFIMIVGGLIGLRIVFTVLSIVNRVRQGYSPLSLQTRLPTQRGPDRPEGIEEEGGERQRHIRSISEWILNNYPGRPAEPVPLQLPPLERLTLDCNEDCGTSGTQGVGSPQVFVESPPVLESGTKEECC

[20] = test system: Human immunodeficiency virus 1; assay: Antiviral activity against HIV-1 Bal.01 infected in HOS.T4.R5 cells preincubated for 45 mins followed by infection with cells and measured 24 hrs post infection by luminescence based analysis; format: functional, organism-based; conditions: Human immunodeficiency virus 1, Bal.01, HOS.T4.R5
[21] = Cytotoxicity against HOS.T4.R5 cells assessed as reduction in cell viability incubated for 24 hrs by WST-1 assay; format: toxicity, cell-based; conditions: human

## CC1(C)CC(NC(=O)C(=O)Nc2ccc(Cl)c(F)c2)CC(C)(C)N1
[1]
  IC50: 0.83 µM
[2]
  IC50: 0.83 µM

## CC1(C)CC(NC(=O)C(=O)Nc2ccc(Cl)cc2)CC(C)(C)N1
[3]
  selectivity ratio: > 43
[4]
  EC50: 6.9 µM
[5]
  EC50: 6.5 µM
[6]
  CC50 at 96 h: > 280 µM
[7]
  selectivity ratio: 8.7

## COc1ccnc2[nH]cc(C(=O)C(=O)N3CCN(C(=O)c4ccccc4)C[C@H]3C)c12
[8]
  EC50: 2.2 µM

## NCCNC(=O)N1CCC[C@H](C(=O)Nc2ccc(Cl)c(F)c2)C1
[9]
  EC50: 7 µM

## CCOC(=O)N1CCC[C@H](C(=O)Nc2ccc(Cl)c(F)c2)C1
[10]
  EC50: 18 µM

## CNCc1ccc2c(c1)[C@H](NC(=O)C(=O)Nc1ccc(Cl)c(F)c1)[C@@H](CNC(=N)N)C2
[11]
  EC50: 1.6 µM

## CN(Cc1ccc2c(c1)[C@H](NC(=O)C(=O)Nc1ccc(Cl)c(F)c1)[C@@H](CNC(=N)N)C2)C(=N)N
[9]
  EC50: 0.11 µM
[11]
  EC50: 1.3 µM

## CNCc1ccc2c(c1)[C@@H](CC[C@@H](O)CO)[C@H](CNC(=N)N)[C@H]2NC(=O)C(=O)Nc1ccc(Cl)c(F)c1
[10]
  EC50: 22 µM

## COc1cnc(-c2csc(CN(C)CCCN(C)C)n2)c2[nH]cc(C(=O)C(=O)N3CCC([C@@H](C#N)c4ccccc4)CC3)c12
[8]
  EC50: 0.02 µM

## O=C(O)c1cc(-c2ccc(/C=C3\SC(=S)N(CCc4ccc(O)cc4)C3=O)o2)ccc1Cl
[1]
  IC50: 0.83 µM
[2]
  IC50: 0.83 µM

## Cc1nc(C(CN)NC(=O)c2ccc(-c3ccc4c(c3)OCO4)[nH]2)sc1CO (stereo unspecified)
[12]
  EC50: 3.8 µM
[3]
  selectivity ratio: 51
[13]
  CC50 at 72 h: 146 µM
[14]
  CC50 at 96 h: 193 µM
[4]
  EC50: 2.3 µM
[7]
  selectivity ratio: 63

## CC1(C)CC(NC(=O)C(=O)Nc2ccc(Cl)c(F)c2)CC(C)(C)N1C(=O)COc1ccc(CCN2C(=O)/C(=C/c3ccc(-c4ccc(Cl)c(C(=O)O)c4)o3)SC2=S)cc1
[15]
  IC50: 0.71 µM
[16]
  IC50: 0.66 µM
[17]
  CC50 at 48 h: 18 µM
[18]
  CC50 at 48 h: 29 µM

## COc1ccnc2[nH]cc(C(=O)C(=O)N3CCN(C(=O)c4ccccc4)CC3)c12
[19]
  IC50: 0.0015 µM

## CC[C@H](C)[C@@H]1NC(=O)[C@H](CC(N)=O)NC(=O)[C@@H](N)CC(=O)NCCCC[C@@H](C(N)=O)NC(=O)[C@H](Cc2c[nH]c3ccccc23)NC(=O)[C@@H]2CC(n3cc(-c4ccc(-c5cccs5)cc4)nn3)CN2C1=O (stereo partly specified) (H-DNI[X1]WK-NH2; lactam 1-6)
[20]
  EC50: 0.105 µM
[21]
  CC50 at 24 h: 100 µM

## CCOC(=O)N1CCCC(C(=O)Nc2ccc(Cl)c(F)c2)C1 (racemic)
[10]
  EC50: 8.3 µM
